In patent publication US10111900B2, “β-glucan methods and compositions that affect the tumor microenvironment” (Biothera, Inc., priority 2014, dated 2018):

How the values were obtained:
Assay type in all cases: cell-based, human
[1] = system: M2 macrophages; assay: Flow cytometry of M1/M2 markers on M2 macrophages derived from β-glucan-treated whole blood; settings: for expression of CD163: M2 macrophages, vs vehicle
Protocol: CD14^+ monocytes from human whole blood were enriched using Ficoll gradient and magnetic bead separation. Enriched monocytes (5×10^5 cells per mL) were then cultured in either M1-polarizing (XVivo 10 media (Lonza Group) supplemented with 5% autologous serum and 100 ng/mL recombinant human granulocyte macrophage colony-stimulating factor (rhGM-CSF) (R&D Systems) or M2-polarizing (XVivo 10 media supplemented with 10% autologous serum and 50 ng/mL recombinant human macrophage colony-stimulating factor (rhM-CSF) (R&D Systems) conditions for 6 days. In experiments performed to evaluate the effect of β-glucan, whole blood was first incubated with vehicle (sodium citrate buffer) or 25 μg/mL soluble β-glucan for 2 hours at 37° C. and then the monocytes were isolated and differentiated. Morphology was checked before macrophages were harvested for phenotypic analysis. Culture medium of the day 6 macrophage culture (MCM) was collected, spun down to remove contaminated cell pellet and then frozen down for subsequent cytokine analysis by ELISA or used to setup a co-culture with CD3 & CD28-stimulated CD4 T cells (MCM-CD4 T) for evaluation of either surface markers or CD4 T cell proliferation. The macrophages were used to setup a co-culture with CD3 & CD28- or CD3 only-stimulated CD4 T cells (Mac-CD4 T) on day 6 for evaluation of either surface marker modulation or effect on CD4 T cell proliferation. For Mac-CD4 T cell proliferation study, M1 or M2 macrophages were cultured with CD3 & CD28- or CD3 only-stimulated, CFSE-labeled, autologous CD4 T cells at a 1:10 ratio. T cell proliferation was measured at the end of the experiment (day 9-day 11) by flow cytometry, and results are graphically shown as CFSE-dilution peaks. The assessment of CD3-only stimulated T cells was always done on day 11. Quantitative results were reported as the Division Index (the average number of cell divisions a population underwent) calculated for each of the triplicate wells in each of the culture conditions. Culture supernatants of Mac-CD4 T cell co-cultures were collected for subsequent cytokine analysis.
M1 and M2 macrophages from vehicle- or […] whole blood were prepared as described above. […] In addition, surface expression of CD86 was enhanced as well as both protein and mRNA levels of PD-L1 (FIG. 2B).
(§1) Expression of a panel of markers was evaluated by flow cytometry for vehicle- and β-glucan-treated, high binder-derived M1 and M2 macrophages (CD163 was evaluated twice).
(§2) CD163 and CD86 were evaluated by flow cytometry for vehicle- and β-glucan-treated, low binder-derived M1 and M2 macrophages.

[2] = system: CD4 T cells; assay: MCM-CD4 T cell proliferation and surface marker study
Protocol: For MCM-CD4 T cell proliferation study, CD3 & CD28-stimulated, CFSE-labeled CD4 T cells were cultured with 50% MCM. T cell proliferation was measured on day 11 as described above. Culture supernatants of the MCM-CD4 T cell co-culture were collected for subsequent cytokine analysis. MCM-CD4 T cell surface marker evaluation was performed as described above.
To determine whether soluble factors secreted from β-glucan-treated M2 macrophages are required, measurements were carried out of CD4 T cell proliferation co-cultured with β-glucan-treated M2 macrophages MCM (50% of volume) and surface activation marker modulation on T cells incubated with the MCM were observed. FIG. 9 is representative of 2 different experiments. […] In addition, the CD4 T cells cultured in vehicle- and β-glucan-treated M2 macrophage MCM were evaluated for modulation of co-stimulatory or co-inhibitory molecules (CD80, CD28, CTLA-4, 4-1BB and PD-1).
To test this, M2 macrophages were prepared as described above with a few modifications. The whole blood of a low binder was spun down to remove the plasma and then the cells were reconstituted with serum obtained from a high binder. The reconstituted blood was treated with vehicle or β-glucan (25 μg/mL) for 2 hours at 37° C. The monocytes were evaluated for binding by using anti-β-glucan specific monoclonal antibody and subsequent flow cytometry.

[3] = system: M1 macrophages; assay: Flow cytometry of M1/M2 markers on M1 macrophages derived from β-glucan-treated whole blood
Protocol: CD14^+ monocytes from human whole blood were enriched using Ficoll gradient and magnetic bead separation. […] T cell proliferation was measured at the end of the experiment (day 9-day 11) by flow cytometry, and results are graphically shown as CFSE-dilution peaks. […] Quantitative results were reported as the Division Index (the average number of cell divisions a population underwent) calculated for each of the triplicate wells in each of the culture conditions. […]
as §1, §2

[4] = β-glucan-treated M2 macrophages vs vehicle

## β(1,6)-[poly-(1,3)-D-glucopyranosyl]-poly-β(1,3)-D-glucopyranose [β-glucan]
[1]; high binders
  expression of CD163: lower expression
[1]; low binders
  expression of CD163: remained the same
[1]; [4]
  mean fluorescence intensity (MFI) of CD163: downmodulated
  protein and mRNA levels of PD-L1: enhanced
  surface expression of CD86: enhanced
[2]; CD4 T cells cultured in M2 macrophage MCM (data not shown)
  T cell markers (CD80, CD28, CTLA-4, 4-1BB and PD-1): no change
[2]; MCM of M2 macrophages of a low binder crossed-over with high binder's serum, vs vehicle
  CD4 T cell proliferation: significantly higher ability to enhance
[2]; β-glucan-treated M2 macrophage MCM (50% of volume) vs vehicle MCM
  CD4 T cell proliferation: significantly higher ability to enhance
[3]; M1 macrophages, high binder
  CD163 (2) median MFI: 230
[3]; β-glucan pretreatment vs vehicle
  M1 macrophage phenotype (M1/M2-specific markers): did not affect
